# In ChEMBL document CHEMBL1152878, “N-Hydroxy-1,2-disubstituted-1H-benzimidazol-5-yl acrylamides as novel histone deacetylase inhibitors: design, synthesis, SAR studies, and in vivo antitumor activity” (Bioorg Med Chem Lett, 2009):
# What was measured:
# Mus musculus [1] = test: Toxicity in athymic xenografted with human HCT116 cells mouse assessed as maximum body weight loss at 200 mg/kg, po qd for 21 days measured on day 7; type: organism-based, HCT-116; set-up: dose 200 mg/kg, route oral; conditions: in vivo, 504 h
# Mus musculus [2] = test: Toxicity in athymic mouse xenografted with human HCT116 cells assessed as maximum body weight loss at 70 mg/kg, ip qd for 21 days measured on day 15; type: organism-based, HCT-116; set-up: dose 70 mg/kg, route intraperitoneal; conditions: in vivo, 504 h
# Histone deacetylase 11 = molecular target: T1, Histone deacetylase 11 (Homo sapiens, UniProt Q96DB2); test: Inhibition of recombinant HDAC11 by fluorimetric assay
# T1 sequence (Q96DB2 whole entry): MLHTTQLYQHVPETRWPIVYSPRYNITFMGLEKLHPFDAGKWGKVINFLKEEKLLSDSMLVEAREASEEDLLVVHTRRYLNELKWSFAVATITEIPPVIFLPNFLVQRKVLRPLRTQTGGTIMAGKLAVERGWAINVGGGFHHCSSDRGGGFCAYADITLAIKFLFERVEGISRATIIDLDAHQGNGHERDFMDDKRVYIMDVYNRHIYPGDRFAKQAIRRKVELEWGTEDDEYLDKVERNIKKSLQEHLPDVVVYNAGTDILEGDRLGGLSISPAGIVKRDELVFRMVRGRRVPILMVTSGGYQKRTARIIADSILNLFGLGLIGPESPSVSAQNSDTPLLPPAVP
# COLO 205 = test: Antiproliferative activity against human COLO205 cells after 96 hrs by celltiter assay; type: functional, cell-based; conditions: COLO 205, 96 h
# HCT-116 [3] = test: Antitumor activity against human HCT116 cells xenografted in athymic mouse assessed as tumor growth inhibition at 200 mg/kg, po qd for 21 days measured on day 21; type: functional; conditions: HCT-116, 504 h, read-out: TGI
# Histone deacetylase 8 = molecular target: T2, Histone deacetylase 8 (Homo sapiens, UniProt Q9BY41); test: Inhibition of recombinant HDAC8 by fluorimetric assay
# T2 sequence (Q9BY41 whole entry): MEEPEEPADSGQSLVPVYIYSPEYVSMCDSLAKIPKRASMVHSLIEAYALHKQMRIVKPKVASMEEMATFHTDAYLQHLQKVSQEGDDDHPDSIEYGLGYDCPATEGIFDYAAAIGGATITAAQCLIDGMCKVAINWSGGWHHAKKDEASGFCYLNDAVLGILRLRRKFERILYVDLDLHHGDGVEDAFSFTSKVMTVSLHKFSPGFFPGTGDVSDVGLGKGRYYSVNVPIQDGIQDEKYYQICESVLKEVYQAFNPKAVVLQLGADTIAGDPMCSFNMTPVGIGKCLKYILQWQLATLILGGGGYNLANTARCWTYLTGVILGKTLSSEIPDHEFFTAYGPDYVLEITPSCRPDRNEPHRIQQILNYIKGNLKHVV
# Histone deacetylase 3 = Histone deacetylase 3 (Homo sapiens, UniProt O15379); test: Inhibition of recombinant HDAC3 by fluorimetric assay
# Histone deacetylase 9 = Histone deacetylase 9 (Homo sapiens, UniProt Q9UKV0); test: Inhibition of recombinant HDAC9 by fluorimetric assay
# [4] = Oral bioavailability in mouse at 50 mg/kg; type: ADME, organism-based; conditions: in vivo
# [5] = Cmax in mouse at 50 mg/kg, po; type: ADME, organism-based; set-up: dose 50 mg/kg, route oral; conditions: in vivo
# HCT-116 [6] = test: Antitumor activity against human HCT116 cells xenografted in athymic mouse assessed as tumor growth inhibition at 130 mg/kg, ip qd for 21 days measured on day 22; type: functional; conditions: HCT-116, ip, route intraperitoneal, read-out: TGI
# HCT-116 [7] = test: Antitumor activity against human HCT116 cells xenografted in athymic mouse assessed as tumor growth inhibition at 70 mg/kg, ip qd for 21 days measured on day 22; type: functional; conditions: HCT-116, ip, route intraperitoneal, read-out: TGI
# [8] = molecular target: T3, Protein deacetylase HDAC6 (Homo sapiens, UniProt Q9UBN7); test: Inhibition of recombinant HDAC6 by fluorimetric assay
# T3 sequence (Q9UBN7 whole entry): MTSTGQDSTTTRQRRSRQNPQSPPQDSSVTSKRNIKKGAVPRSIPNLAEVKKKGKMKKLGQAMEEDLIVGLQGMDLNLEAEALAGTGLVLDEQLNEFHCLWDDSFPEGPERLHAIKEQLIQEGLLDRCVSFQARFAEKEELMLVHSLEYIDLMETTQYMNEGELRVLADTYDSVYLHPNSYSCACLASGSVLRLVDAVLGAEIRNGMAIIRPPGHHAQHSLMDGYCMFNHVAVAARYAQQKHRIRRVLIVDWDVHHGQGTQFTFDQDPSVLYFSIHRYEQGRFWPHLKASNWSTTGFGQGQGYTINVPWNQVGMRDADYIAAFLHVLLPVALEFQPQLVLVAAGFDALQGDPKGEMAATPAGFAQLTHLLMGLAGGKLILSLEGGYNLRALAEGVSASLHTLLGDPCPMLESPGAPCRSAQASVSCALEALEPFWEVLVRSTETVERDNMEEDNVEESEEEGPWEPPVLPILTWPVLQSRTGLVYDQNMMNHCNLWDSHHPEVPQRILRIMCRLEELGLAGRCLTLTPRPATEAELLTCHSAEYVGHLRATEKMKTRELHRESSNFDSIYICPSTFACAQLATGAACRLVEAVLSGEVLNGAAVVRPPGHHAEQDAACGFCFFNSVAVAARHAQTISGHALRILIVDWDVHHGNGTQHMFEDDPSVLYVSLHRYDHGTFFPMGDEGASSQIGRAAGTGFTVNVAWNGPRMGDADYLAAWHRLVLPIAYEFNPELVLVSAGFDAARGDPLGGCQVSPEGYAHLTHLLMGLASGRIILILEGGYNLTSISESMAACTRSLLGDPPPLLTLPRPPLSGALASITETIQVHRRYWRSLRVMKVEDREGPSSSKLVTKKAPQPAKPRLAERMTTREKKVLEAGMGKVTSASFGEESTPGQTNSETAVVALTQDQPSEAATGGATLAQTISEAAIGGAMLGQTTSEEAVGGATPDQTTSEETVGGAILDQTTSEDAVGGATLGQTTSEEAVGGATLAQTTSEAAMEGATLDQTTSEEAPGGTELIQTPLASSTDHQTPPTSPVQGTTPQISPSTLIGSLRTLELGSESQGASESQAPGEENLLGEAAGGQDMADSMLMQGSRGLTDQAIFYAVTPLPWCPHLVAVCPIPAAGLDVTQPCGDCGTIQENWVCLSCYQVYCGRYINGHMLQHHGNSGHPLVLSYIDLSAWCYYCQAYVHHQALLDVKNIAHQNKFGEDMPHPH
# [9] = Toxicity in ip dosed athymic mouse assessed as maximum tolerated dose; type: organism-based; conditions: in vivo
# Histone deacetylase 5 = Histone deacetylase 5 (Homo sapiens, UniProt Q9UQL6); test: Inhibition of recombinant HDAC5 by fluorimetric assay
# Mus musculus [10] = test: Toxicity in athymic mouse xenografted with human HCT116 cells assessed as maximum body weight loss at 130 mg/kg, ip qd for 21 measured on day 19; type: organism-based, HCT-116; set-up: dose 130 mg/kg, route intraperitoneal; conditions: in vivo
# Mus musculus [11] = test: Toxicity in athymic mouse xenografted with human HCT116 cells assessed as maximum body weight loss at 100 mg/kg, po qd for 21 days; type: organism-based, HCT-116; set-up: dose 100 mg/kg, route oral; conditions: in vivo, 504 h
# HCT-116 [12] = test: Antitumor activity against human HCT116 cells xenografted in athymic mouse assessed as tumor growth inhibition at 100 mg/kg, po qd for 21 days measured on day 21; type: functional; conditions: HCT-116, 504 h, read-out: TGI
# Histone deacetylase 4 = Histone deacetylase 4 (Homo sapiens, UniProt P56524); test: Inhibition of recombinant HDAC4 by fluorimetric assay
# [13] = Solubility at pH 6.5; type: physicochemical; conditions: buffer
# [14] = Lipophilicity, log D at pH 7.3; type: physicochemical; conditions: buffer
# Chain of Histone deacetylase 4 (P56524 whole entry): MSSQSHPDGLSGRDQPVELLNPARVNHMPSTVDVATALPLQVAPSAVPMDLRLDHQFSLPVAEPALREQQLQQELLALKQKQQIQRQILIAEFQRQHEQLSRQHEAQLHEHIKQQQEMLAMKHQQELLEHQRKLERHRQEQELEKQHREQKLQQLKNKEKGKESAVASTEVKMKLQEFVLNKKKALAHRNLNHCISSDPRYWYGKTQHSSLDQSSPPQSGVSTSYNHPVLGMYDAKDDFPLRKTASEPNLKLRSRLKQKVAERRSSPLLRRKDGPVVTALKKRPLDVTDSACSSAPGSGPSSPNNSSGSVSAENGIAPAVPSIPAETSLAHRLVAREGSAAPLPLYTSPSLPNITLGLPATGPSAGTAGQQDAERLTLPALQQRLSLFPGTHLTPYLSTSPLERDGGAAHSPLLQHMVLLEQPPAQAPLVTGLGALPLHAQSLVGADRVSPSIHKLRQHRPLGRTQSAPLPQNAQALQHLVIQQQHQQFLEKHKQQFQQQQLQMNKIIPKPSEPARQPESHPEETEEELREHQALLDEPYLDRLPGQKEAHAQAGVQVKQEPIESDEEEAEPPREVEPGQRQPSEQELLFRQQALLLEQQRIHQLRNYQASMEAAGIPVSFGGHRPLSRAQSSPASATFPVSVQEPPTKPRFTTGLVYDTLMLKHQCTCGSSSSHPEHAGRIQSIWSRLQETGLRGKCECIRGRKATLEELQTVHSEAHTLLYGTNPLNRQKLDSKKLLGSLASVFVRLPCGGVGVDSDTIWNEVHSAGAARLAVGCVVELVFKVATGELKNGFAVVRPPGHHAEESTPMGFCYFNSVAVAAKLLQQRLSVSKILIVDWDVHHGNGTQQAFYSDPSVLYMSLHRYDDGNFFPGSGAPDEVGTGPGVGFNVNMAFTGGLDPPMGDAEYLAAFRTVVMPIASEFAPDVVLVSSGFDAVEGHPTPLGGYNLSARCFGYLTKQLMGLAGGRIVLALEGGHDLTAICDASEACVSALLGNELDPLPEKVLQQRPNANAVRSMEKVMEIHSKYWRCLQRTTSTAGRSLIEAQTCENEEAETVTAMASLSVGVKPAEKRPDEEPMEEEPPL
# Chain of Histone deacetylase 9 (Q9UKV0 whole entry): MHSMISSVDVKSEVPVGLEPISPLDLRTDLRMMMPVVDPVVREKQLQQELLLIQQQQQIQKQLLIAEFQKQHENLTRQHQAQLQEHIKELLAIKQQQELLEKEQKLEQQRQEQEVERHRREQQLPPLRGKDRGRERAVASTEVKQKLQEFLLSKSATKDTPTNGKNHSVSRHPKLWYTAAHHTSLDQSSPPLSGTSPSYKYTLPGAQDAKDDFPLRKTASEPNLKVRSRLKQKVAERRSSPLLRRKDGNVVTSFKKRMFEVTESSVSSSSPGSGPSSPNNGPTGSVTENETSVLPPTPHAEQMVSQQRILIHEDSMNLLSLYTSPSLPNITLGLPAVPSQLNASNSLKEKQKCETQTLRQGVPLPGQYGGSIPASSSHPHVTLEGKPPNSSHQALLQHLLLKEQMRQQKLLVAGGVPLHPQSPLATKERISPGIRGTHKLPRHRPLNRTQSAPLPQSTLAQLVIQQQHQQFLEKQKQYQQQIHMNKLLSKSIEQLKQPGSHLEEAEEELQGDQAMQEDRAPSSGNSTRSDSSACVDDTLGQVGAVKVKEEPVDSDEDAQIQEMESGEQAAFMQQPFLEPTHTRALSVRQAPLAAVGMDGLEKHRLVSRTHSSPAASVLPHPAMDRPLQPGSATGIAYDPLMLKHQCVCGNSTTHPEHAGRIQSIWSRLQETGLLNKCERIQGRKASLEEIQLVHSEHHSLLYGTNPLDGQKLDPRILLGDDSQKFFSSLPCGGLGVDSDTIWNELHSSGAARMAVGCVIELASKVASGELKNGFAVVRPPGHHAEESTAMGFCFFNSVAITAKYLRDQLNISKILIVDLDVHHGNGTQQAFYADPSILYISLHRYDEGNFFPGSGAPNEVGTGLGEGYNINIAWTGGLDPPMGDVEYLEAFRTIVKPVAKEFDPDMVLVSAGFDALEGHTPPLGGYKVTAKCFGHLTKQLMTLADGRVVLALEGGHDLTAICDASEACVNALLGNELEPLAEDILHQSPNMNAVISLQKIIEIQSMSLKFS
# Chain of Histone deacetylase 5 (Q9UQL6 whole entry): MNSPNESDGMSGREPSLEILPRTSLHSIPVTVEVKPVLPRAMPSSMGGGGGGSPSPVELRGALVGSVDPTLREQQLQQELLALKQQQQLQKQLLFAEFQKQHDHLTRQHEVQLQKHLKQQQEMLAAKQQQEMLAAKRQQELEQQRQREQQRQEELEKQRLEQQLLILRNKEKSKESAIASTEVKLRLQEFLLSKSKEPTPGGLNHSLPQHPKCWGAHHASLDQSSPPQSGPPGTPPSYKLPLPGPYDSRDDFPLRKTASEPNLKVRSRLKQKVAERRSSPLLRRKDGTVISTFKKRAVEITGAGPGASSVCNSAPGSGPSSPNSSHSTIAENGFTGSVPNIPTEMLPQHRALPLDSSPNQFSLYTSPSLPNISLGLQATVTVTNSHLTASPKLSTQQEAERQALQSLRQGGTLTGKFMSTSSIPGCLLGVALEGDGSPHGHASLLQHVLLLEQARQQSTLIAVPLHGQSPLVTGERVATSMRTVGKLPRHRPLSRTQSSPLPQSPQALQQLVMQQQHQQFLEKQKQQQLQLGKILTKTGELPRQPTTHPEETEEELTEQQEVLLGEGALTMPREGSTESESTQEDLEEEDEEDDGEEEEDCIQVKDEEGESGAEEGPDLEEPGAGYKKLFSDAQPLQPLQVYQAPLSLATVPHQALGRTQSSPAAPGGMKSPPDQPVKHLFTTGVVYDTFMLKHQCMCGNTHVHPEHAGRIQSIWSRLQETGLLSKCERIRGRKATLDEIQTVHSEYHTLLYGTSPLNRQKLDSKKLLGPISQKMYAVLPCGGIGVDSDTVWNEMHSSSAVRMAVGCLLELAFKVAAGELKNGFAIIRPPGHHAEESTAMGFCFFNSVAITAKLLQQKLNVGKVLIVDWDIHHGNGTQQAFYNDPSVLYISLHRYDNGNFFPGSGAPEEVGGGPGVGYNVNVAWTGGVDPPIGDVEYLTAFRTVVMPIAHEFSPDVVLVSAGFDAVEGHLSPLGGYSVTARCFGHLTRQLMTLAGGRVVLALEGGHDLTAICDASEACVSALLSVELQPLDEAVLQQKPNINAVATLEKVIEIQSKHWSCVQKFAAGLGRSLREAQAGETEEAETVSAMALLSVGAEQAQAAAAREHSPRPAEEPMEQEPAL
# Chain of Histone deacetylase 3 (O15379 whole entry): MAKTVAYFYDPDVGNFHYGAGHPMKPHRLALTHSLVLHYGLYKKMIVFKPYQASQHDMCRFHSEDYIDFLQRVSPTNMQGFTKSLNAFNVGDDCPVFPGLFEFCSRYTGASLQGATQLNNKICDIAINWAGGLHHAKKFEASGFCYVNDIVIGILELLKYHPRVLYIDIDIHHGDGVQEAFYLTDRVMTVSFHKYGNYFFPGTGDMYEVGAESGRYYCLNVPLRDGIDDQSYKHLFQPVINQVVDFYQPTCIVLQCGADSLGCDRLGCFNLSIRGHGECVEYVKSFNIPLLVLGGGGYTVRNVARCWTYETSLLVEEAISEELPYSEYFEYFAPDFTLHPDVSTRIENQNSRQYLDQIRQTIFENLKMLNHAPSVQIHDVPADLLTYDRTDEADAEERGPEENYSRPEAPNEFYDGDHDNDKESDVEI
smiles,measurement,setting,value
O=C(/C=C/c1ccc2c(c1)nc(CCc1ccccc1)n2CCN1CCCC1)NO,Activity,Mus musculus [1],5.7%
same,Activity,Mus musculus [2],0.5%
same,Ki,Histone deacetylase 11,0.0128 µM
same,IC50,COLO 205,0.14 µM
same,inhibition in vivo at 200 mg/kg,HCT-116 [3],78%
same,Ki,Histone deacetylase 8,0.082 µM
same,Ki,Histone deacetylase 3,0.0125 µM
same,Ki,Histone deacetylase 9,0.0192 µM
same,bioavailability,[4],13%
same,Cmax,[5],920 nM
same,inhibition in vivo at 130 mg/kg,HCT-116 [6],89%
same,inhibition in vivo at 70 mg/kg,HCT-116 [7],59%
same,Ki,[8],0.0206 µM
same,MTD,[9],130 mg/kg
same,Ki,Histone deacetylase 5,0.0172 µM
same,Activity,Mus musculus [10],8.7%
same,Activity,Mus musculus [11],Non-toxic
same,inhibition in vivo at 100 mg/kg,HCT-116 [12],43%
same,Ki,Histone deacetylase 4,0.0096 µM
Cl.O=C(/C=C/c1ccc2c(c1)nc(CCc1ccccc1)n2CCN1CCCC1)NO,solubility,[13],1600 µg/mL
same,logD,[14],2.1
